According to EP4810046A1, “USE OF PENTACYCLIC TRITERPENE COMPOUND TARGETING HYDROXYSTEROID 17-B DEHYDROGENASE 4” (Jiangsu Bcy Pharm. Co., Ltd, priority 2023, dated 2025):

Experiments:
AD mice = test: Behavioral tests (Morris water maze, open field, Y-maze) in AD mice after oral gavage treatment; type: in vivo; conditions: compared with vehicle control group
Description: For evaluation of therapeutic efficacy in animal models, a 15mg/mL CKBA suspension (solvent: 0.5% sodium carboxymethylcellulose) was administered by oral gavage at a volume of 200µL (equivalent to a dose of 100mg/kg). […] Therapeutic efficacy was evaluated after the treatment period.
• (1) 5xFAD transgenic mice: These mice overexpress mutant human APP (695) carrying the Swedish (K670N, M671L), Florida (I716V) and London (V717I) familial Alzheimer's disease (FAD) mutations, as well as human PS1 carrying two FAD mutations (M146L and L286V). Expressions of both transgenes are driven by the mouse neuron-specific regulatory element Thy1 promoter to achieve overexpression in the brain. […] 5XFAD mice produce almost exclusively Aβ-42 and rapidly accumulate it in the brain. • (2) Preparation of MS mouse (EAE) model and evaluation of CKBA intervention efficacy
Evaluation of the therapeutic effect of CKBA on AD: 8-10 month old 5xFAD mice, 5xFAD mice treated with the small molecule drug CKBA and control mice were subjected to behavioral tests including the Morris water maze, open field test and rotarod test to evaluate higher central nervous system functions. During the behavioral tests, the animal movement trajectory tracking system (EthoVision XT 16.0) was used for full-recording and offline analysis.
Morris water maze: Mice underwent a 5-day adaptive training period, wherein abnormal individuals were excluded. On the final day, after removing the platform, a probe trial was performed. Quantitative data were recorded, including the escape latency after entering the water in each quadrant during the learning phase, the number of platform crossings, and the latency to reach the platform area.
Open field test: The spontaneous activity path of mice in a 50cm*50cm*40 cm novel open field within 5 minutes was recorded. The distance traveled and time spent in the center area were analyzed to assess anxiety-related behavior.
AD mice were treated with CKBA by oral gavage (Figure 5A) for in vivo intervention studies, with continuous intervention for 3 months. […]

MFE-2 [1] = biological target: T1, MFE-2 (Mus musculus, UniProt P51660); test: MFE-2 protein expression in BV2 cells with and without LPS stimulation (Western blot); type: cell-based
T1 construct: endogenous in cells; host or cells: BV2 mouse microglial cell line
T1 sequence (P51660 1-735): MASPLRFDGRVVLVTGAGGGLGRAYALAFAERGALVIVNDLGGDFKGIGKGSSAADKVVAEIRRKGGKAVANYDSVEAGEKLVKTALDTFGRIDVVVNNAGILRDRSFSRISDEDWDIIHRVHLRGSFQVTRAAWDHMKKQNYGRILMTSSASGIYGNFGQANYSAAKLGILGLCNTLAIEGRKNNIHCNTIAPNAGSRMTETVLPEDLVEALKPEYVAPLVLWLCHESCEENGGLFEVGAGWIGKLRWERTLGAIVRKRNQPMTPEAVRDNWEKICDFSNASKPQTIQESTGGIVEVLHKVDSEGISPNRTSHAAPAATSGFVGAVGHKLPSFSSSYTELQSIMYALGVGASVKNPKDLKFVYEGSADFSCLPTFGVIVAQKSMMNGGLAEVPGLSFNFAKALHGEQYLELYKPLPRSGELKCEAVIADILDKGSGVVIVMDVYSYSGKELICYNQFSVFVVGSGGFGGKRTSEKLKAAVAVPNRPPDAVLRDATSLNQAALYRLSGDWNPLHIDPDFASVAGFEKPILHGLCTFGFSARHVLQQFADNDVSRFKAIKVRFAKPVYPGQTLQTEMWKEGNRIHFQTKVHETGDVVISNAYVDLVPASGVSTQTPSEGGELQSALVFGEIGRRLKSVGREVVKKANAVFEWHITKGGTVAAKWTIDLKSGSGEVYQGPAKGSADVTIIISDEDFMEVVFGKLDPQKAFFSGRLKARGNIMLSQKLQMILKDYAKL
Description: Cell treatment: For cell treatment, CKBA was dissolved in DMSO to prepare a stock solution at a concentration of 5mM (1000×), stored at -20°C. For use, the stock solution was added to the cell culture medium at a dilution of 1:1000 and mixed well. The final working concentration was 5µM. Cells were treated for 24-48h and then collected for subsequent experiments.
(§1) The Western blot procedure comprised: fresh cells or tissue samples were immersed in lysis buffer and placed on ice for 10-15 minutes. After observing that the cells/tissues were fully lysed into a homogeneous turbid liquid, the samples were placed on ice for an additional 10 minutes. Centrifugation was performed at 12000 rpm for 10 minutes, and the supernatant was collected. Total protein concentration was determined using the BCA method. Subsequently, steps including loading, electrophoresis, membrane transfer, blocking, and incubation with primary and secondary antibodies were carried out. After developing with ECL chemiluminescent substrate, ImageJ was used to analyze protein content.
Further exploration was conducted to investigate the mode of action of CKBA on the MFE-2 protein.

Solubility description = type: physicochemical; conditions: methanol/DMSO; water
[2] = mouse, po, 100 mg/kg
Description: Based on the above optimized method, the absolute content of CKBA in brain tissue was further detected. For absolute content detection of CKBA in brain tissue, normal mice were administered CKBA by oral gavage. One hour after administration, the mice were perfused, and fresh brain tissue and serum were collected for mass spectrometry analysis.

inflammatory microglia = test: Seahorse energy metabolism (OCR) assay of CKBA-treated, LPS-stimulated BV2 cells; type: cell-based, mouse; conditions: Figure 4B
Description: The specific methods for CKBA treatment and LPS activation of the BV2 cell line were as described above.
The main steps of the Seahorse assay were as follows: Seahorse XF Cell Mitochondrial Stress Analysis: Single cells from brain tissue were obtained using the aforementioned experimental methods. Microglia in brain tissue were collected by flow cytometry sorting. Primary microglia were seeded into Seahorse XF cell culture plates 4-7 days in advance. After the cells were fully adherent, the probe plate was hydrated with double-distilled water and placed in a CO2-free 37°C incubator overnight. The next day, the calibration solution was replaced to further equilibrate and hydrate the probes. On the day of the experiment, the assay solution was prepared, and the corresponding substrates (glucose, pyruvate, glutamine, etc.) from the kit were added. The pH was adjusted to 7.4. […] OCR/ECAR values were recorded at different time points after drug addition. After recording, the cell plate was removed, and the number of microglia per well was counted under an inverted microscope. After normalizing OCR/ECAR to the cell number, intracellular mitochondrial stress levels were quantitatively analyzed.
Seahorse energy metabolism analysis was performed. By measuring the changes in oxygen consumption reagents and dissolved oxygen content in the cell culture medium, the OCR of the cells was calculated.

MFE-2 [3] = biological target: T1, MFE-2; test: CKBA-biotin pull-down and Western blot for direct binding to MFE-2; conditions: microglial cell line (BV2), CKBA-biotin 5µM, 6 hours
Description: CKBA pull-down assay was performed to detect the direct interaction between CKBA and MFE-2. Specifically, CKBA was labeled with Biotin. CKBA-biotin was added to the culture medium at a final concentration of 5µM for 6 hours. Cells were then washed, lysed, and incubated with Streptavidin magnetic beads under rotation at 4°C for 3 hours. After washing the beads 4 times, loading buffer was added, and the samples were boiled at 96°C for 5 minutes. Western blot (WB) was used to detect MFE-2 protein levels to assess the direct interaction between the small molecule compound and MFE-2.
as §1

LPS-activated BV2 cells = test: CCK-8 assay of CKBA-treated LPS-activated BV2 cells; type: cell-based, mouse; conditions: 0.1-20 µM CKBA, 24 hours
Description: The mouse microglial cell line BV2 was seeded into 96-well flat-bottom plates and cultured overnight to allow full cell adherence. BV2 cells were activated by stimulation with LPS. LPS (Sigma) stock solution (5 mg/mL) was added to the BV2 cell culture supernatant and mixed well. After 12 hours of activation, cell morphology was observed. […]
Subsequently, a CCK8 assay (Dojindo, Japan) was performed to measure cell viability. The cell culture medium was removed from the 96-well plate, and 100 µL of diluted CCK8 reaction solution was added to each well. The plate was protected from light. Incubation conditions: 37°C incubator for about 1-2 hours. After 1 hour of incubation, the plate was removed, and the colorimetric (orange) signal was detected using a multifunctional microplate reader (Tecan Infinite 200 pro, Austria). Depending on the signal intensity, the plate could be further incubated for 1.5/2 hours, and the signal was measured at multiple time points. The colorimetric intensity values were recorded, and subsequent statistical analysis and graphing were performed using SPSS.
In vitro cell experiments were performed to analyze the effect of CKBA on the inflammatory activation of microglia.

SMILES: C[C@H]1[C@H](C)CC[C@]2(C)CC[C@]3(C)C(=CC(=O)[C@@H]4[C@@]5(C)CC[C@@H](OC(=O)C6CCCCC6)[C@](C)(C(=O)O)[C@@H]5CC[C@]43C)[C@H]12 [CKBA, 3-o-α-cyclohexanoyl-11-keto-β-boswellic acid]
- platform crossover number (AD mice): significant increase
- time spent in the opposite quadrant (AD mice): significant decrease
- time spent in the specific effective area (center area) as a percentage of total movement time (AD mice): significant increase
- expression and content of MFE-2 after LPS stimulation (MFE-2 [1]; LPS-stimulated BV2 cells): effectively maintained the expression and content of MFE-2
- baseline expression level of MFE-2 (MFE-2 [1]; normal BV2 cells, no LPS): did not affect the baseline expression level of MFE-2
- solubility (Solubility description): lipophilic, soluble in methanol/DMSO, insoluble in water
- blood-brain barrier permeability [2]: could effectively cross the blood-brain barrier
- activity of inflammatory microglia (OCR) (inflammatory microglia): significantly inhibited the activity of inflammatory microglia
- binding to MFE-2 protein (pull-down) (MFE-2 [3]): could bind to the MFE-2 protein
- expansion of inflammatory microglia (LPS-activated BV2 cells): significantly inhibited the expansion of inflammatory microglia
- peroxisome stability (LPS-activated BV2 cells): maintained peroxisome stability
